Reference: patent US7887599B2, “Methods of use of biodegradable injectable implants” (priority 2001, dated 2011)

How the values were obtained:
guinea pigs [1] = conditions: guinea pig, in vivo
Description: (§1) In a preliminary test, 39 guinea pigs were used to define product concentration for intradermal injections. All were adult animals and sex was not considered. They were divided in 4 different cages, each containing 9, 10, 10 and 10 animals. […] Evaluations were taken after the 3rd and 7th day.

skin [2] = assay: Injection of GA alone, re-hydrating effect on the skin; assay type: in vivo, human
human patients [3] = conditions: in comparison to the retinoids (Personelli); cited from earlier work
skin [4] = conditions: documented; cited from earlier work
guinea pigs [5] = assay: Preliminary test of glycolic acid concentration for intradermal injections in guinea pigs
Description: as §1

human patients [6] = assay: Intradermal application of glycolic acid in human patients; assay type: in vivo; conditions: 35 human patients, intradermal application of 5 ml at 0.01%
[7] = cited from earlier work

SMILES	animals showing a minimal oedema and hyperaemia (guinea pigs [1]) [%]	animals with no edema and no hyperaemia (guinea pigs [1]) [%]	ideal dose (guinea pigs [1]) [%]	re-hydrating effect of the skin (skin [2])	local toxicity (human patients [3])	systemic effect or comedomic action (human patients [3])	increase in skin moisture (skin [4]) [%]	tissue finding (guinea pigs [5]; 0.1 ml at 0.1%, 3rd day)	tissue finding (guinea pigs [5]; 0.1 ml at 0.1%, 7th day)	tissue finding (guinea pigs [5]; 0.1 ml at 0.2%, 3rd day)	tissue finding (guinea pigs [5]; 0.1 ml at 0.2%, 7th day)	tissue finding (guinea pigs [5]; 0.1 ml at 0.3%, 3rd day)	tissue finding (guinea pigs [5]; 0.1 ml at 0.3%, 7th day)	adverse reactions in tissues (hyperemia, edema or discreet ecchymosis) (human patients [6])	solubility in water [7]
O=C(O)CO [glycolic acid]	40	60	0.01	remarkable re-hydrating effect	low local toxicity	no systemic effect or comedomic action	300	tissue necrosis	ulcer	moderate hyperaemia and edema	normal tissue (regular)	evident hyperaemia edema	epydermolyse and edema	no adverse reactions	–
OC[C@@H](O)[C@@H](O)[C@H](O)[C@H](O)CO [D-mannitol]	–	–	–	–	–	–	–	–	–	–	–	–	–	–	readily soluble
